Measured values published in PMC7932537, “Quantitative profiling of protease specificity” (PLoS Computational Biology, 2021).

Tests used:
MMP-9 [1] = assay: Substrate phage display with NGS: relative probability (RP) of P3-P1' tetramer clusters; format: biochemical, human; settings: MMP9; RP of the substrate's P3-P1' tetramer, substrate phage display with NGS;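 also: ratio of tetramer probability after protease selection to that in naive phage library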
MMP-2 = target: T1, MMP-2 (Homo sapiens, UniProt P08253); assay: K(obs) of individual phage substrates (set of 1369); format: biochemical; settings: MMP2; individual phage substrate from the set of 1369 peptides; hyphen in the sequence marks the cleavage position
T1 sequence (P08253 110-660): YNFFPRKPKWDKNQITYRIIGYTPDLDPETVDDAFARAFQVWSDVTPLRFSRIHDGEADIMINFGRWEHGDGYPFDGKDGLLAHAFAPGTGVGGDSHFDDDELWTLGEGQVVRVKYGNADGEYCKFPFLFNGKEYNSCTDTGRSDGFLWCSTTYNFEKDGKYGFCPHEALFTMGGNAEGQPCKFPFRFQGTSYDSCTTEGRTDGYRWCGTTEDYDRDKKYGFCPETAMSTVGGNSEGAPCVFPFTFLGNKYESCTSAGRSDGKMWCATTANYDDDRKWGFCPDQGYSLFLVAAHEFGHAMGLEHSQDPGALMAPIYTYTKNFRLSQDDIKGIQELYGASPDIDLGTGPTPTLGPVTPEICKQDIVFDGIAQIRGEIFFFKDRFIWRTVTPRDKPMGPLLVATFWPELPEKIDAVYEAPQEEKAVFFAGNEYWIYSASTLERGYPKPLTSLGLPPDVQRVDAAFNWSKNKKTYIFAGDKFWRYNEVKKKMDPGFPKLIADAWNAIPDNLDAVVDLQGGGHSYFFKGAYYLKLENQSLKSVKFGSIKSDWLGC

MMP-9 [2] = target: MMP-9 (Homo sapiens, UniProt P14780); assay: as above; format: biochemical; settings: MMP9; individual phage substrate of the set of 1369 peptides; dash in sequence marks cleavage position
Chain of MMP-9 (Homo sapiens, UniProt P14780) (P14780 94-707): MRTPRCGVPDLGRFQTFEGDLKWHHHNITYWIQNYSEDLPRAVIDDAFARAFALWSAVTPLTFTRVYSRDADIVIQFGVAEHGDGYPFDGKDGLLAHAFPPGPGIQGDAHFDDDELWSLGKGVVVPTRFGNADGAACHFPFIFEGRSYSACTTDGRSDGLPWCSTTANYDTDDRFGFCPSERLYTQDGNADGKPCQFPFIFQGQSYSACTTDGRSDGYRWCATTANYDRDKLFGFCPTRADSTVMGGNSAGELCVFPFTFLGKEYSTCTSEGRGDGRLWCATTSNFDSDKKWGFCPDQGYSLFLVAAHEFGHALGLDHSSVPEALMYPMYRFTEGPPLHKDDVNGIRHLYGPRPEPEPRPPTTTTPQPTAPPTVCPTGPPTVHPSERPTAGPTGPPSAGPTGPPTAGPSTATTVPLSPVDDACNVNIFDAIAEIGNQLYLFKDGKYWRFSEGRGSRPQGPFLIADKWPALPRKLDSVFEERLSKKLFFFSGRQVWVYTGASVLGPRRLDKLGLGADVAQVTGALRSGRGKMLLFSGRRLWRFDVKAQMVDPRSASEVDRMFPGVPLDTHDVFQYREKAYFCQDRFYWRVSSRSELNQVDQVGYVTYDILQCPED

Substance: GMPLL-LRTAS
- relative probability (RP) (MMP-9 [1]): 32.5638
- Kobs (MMP-2): 8321.48 M⁻¹ s⁻¹
- Kobs (MMP-9 [2]): 12792.1 M⁻¹ s⁻¹

Substance: GMPRA-YRTAS
- relative probability (RP) (MMP-9 [1]): 46.2238
- Kobs (MMP-2): 12792.1 M⁻¹ s⁻¹
- Kobs (MMP-9 [2]): 12792.1 M⁻¹ s⁻¹

Substance: GMPRS-YITAS
- relative probability (RP) (MMP-9 [1]): 44.546
- Kobs (MMP-2): 12792.1 M⁻¹ s⁻¹
- Kobs (MMP-9 [2]): 12792.1 M⁻¹ s⁻¹

Substance: GMVLG-LHTAS
- relative probability (RP) (MMP-9 [1]): 34.6877
- Kobs (MMP-2): 12792.1 M⁻¹ s⁻¹
- Kobs (MMP-9 [2]): 12792.1 M⁻¹ s⁻¹

Substance: GMVRG-VTASG
- relative probability (RP) (MMP-9 [1]): 13.8249
- Kobs (MMP-2): 7386.83 M⁻¹ s⁻¹
- Kobs (MMP-9 [2]): 2761.81 M⁻¹ s⁻¹

Substance: GNPAQ-MRTAS
- relative probability (RP) (MMP-9 [1]): 38.7952
- Kobs (MMP-2): 12792.1 M⁻¹ s⁻¹
- Kobs (MMP-9 [2]): 7015.91 M⁻¹ s⁻¹

Substance: GNPLG-IRTAS
- relative probability (RP) (MMP-9 [1]): 48.5606
- Kobs (MMP-2): 12792.1 M⁻¹ s⁻¹
- Kobs (MMP-9 [2]): 12792.1 M⁻¹ s⁻¹

Substance: GQPRA-IRTAS
- relative probability (RP) (MMP-9 [1]): 47.8426
- Kobs (MMP-2): 12792.1 M⁻¹ s⁻¹
- Kobs (MMP-9 [2]): 12792.1 M⁻¹ s⁻¹

Substance: GRATA-LYTAS
- relative probability (RP) (MMP-9 [1]): 15.5991
- Kobs (MMP-2): 4082.43 M⁻¹ s⁻¹
- Kobs (MMP-9 [2]): 1283.43 M⁻¹ s⁻¹

Substance: GRLLA-MHTAS
- relative probability (RP) (MMP-9 [1]): 12.6533
- Kobs (MMP-2): 2687.73 M⁻¹ s⁻¹
- Kobs (MMP-9 [2]): 1112.44 M⁻¹ s⁻¹

Substance: GRPAG-VKTAS
- relative probability (RP) (MMP-9 [1]): 31.0803
- Kobs (MMP-2): 12792.1 M⁻¹ s⁻¹
- Kobs (MMP-9 [2]): 3079.62 M⁻¹ s⁻¹

Substance: GRPAQ-MKTAS
- relative probability (RP) (MMP-9 [1]): 38.7952
- Kobs (MMP-2): 3850.82 M⁻¹ s⁻¹
- Kobs (MMP-9 [2]): 5667.28 M⁻¹ s⁻¹

Substance: GRPLN-LSTAS
- relative probability (RP) (MMP-9 [1]): 48.0943
- Kobs (MMP-2): 12792.1 M⁻¹ s⁻¹
- Kobs (MMP-9 [2]): 12792.1 M⁻¹ s⁻¹

Substance: GRPRS-LLTAS
- relative probability (RP) (MMP-9 [1]): 44.7764
- Kobs (MMP-2): 12792.1 M⁻¹ s⁻¹
- Kobs (MMP-9 [2]): 7815.03 M⁻¹ s⁻¹

Substance: GRPSA-MTTAS
- relative probability (RP) (MMP-9 [1]): 46.4881
- Kobs (MMP-2): 3741.87 M⁻¹ s⁻¹
- Kobs (MMP-9 [2]): 9740.44 M⁻¹ s⁻¹

Substance: GRPSF-LKTAS
- relative probability (RP) (MMP-9 [1]): 37.0272
- Kobs (MMP-2): 12792.1 M⁻¹ s⁻¹
- Kobs (MMP-9 [2]): 8321.48 M⁻¹ s⁻¹

Substance: GRPSP-FWTAS
- relative probability (RP) (MMP-9 [1]): 37.3217
- Kobs (MMP-2): 12792.1 M⁻¹ s⁻¹
- Kobs (MMP-9 [2]): 3850.82 M⁻¹ s⁻¹

Substance: GRPVN-LTTAS
- relative probability (RP) (MMP-9 [1]): 46.0636
- Kobs (MMP-2): 12792.1 M⁻¹ s⁻¹
- Kobs (MMP-9 [2]): 12792.1 M⁻¹ s⁻¹

Substance: GSAIP-LWTAS
- relative probability (RP) (MMP-9 [1]): 32.5296
- Kobs (MMP-2): 1418.96 M⁻¹ s⁻¹
- Kobs (MMP-9 [2]): 2038.8 M⁻¹ s⁻¹

Substance: GSGRG-LWSET
- relative probability (RP) (MMP-9 [1]): 11.4523
- Kobs (MMP-2): 799.117 M⁻¹ s⁻¹
- Kobs (MMP-9 [2]): 1373.05 M⁻¹ s⁻¹

Substance: GSHAA-LRTAS
- relative probability (RP) (MMP-9 [1]): 0.9522
- Kobs (MMP-2): 12792.1 M⁻¹ s⁻¹
- Kobs (MMP-9 [2]): 0 M⁻¹ s⁻¹

Substance: GSPLP-FITAS
- relative probability (RP) (MMP-9 [1]): 46.6229
- Kobs (MMP-2): 12792.1 M⁻¹ s⁻¹
- Kobs (MMP-9 [2]): 12792.1 M⁻¹ s⁻¹

Substance: GSPRN-LRTAS
- relative probability (RP) (MMP-9 [1]): 48.2698
- Kobs (MMP-2): 12792.1 M⁻¹ s⁻¹
- Kobs (MMP-9 [2]): 12792.1 M⁻¹ s⁻¹

Substance: GTPIE-LYTAS
- relative probability (RP) (MMP-9 [1]): 35.3641
- Kobs (MMP-2): 8321.48 M⁻¹ s⁻¹
- Kobs (MMP-9 [2]): 9740.44 M⁻¹ s⁻¹

Substance: GTPRN-IKTAS
- relative probability (RP) (MMP-9 [1]): 46.5688
- Kobs (MMP-2): 12792.1 M⁻¹ s⁻¹
- Kobs (MMP-9 [2]): 12792.1 M⁻¹ s⁻¹

Substance: GVLRN-LITAS
- relative probability (RP) (MMP-9 [1]): 37.603
- Kobs (MMP-2): 12792.1 M⁻¹ s⁻¹
- Kobs (MMP-9 [2]): 6688.74 M⁻¹ s⁻¹

Substance: GVPKN-QMTAS
- relative probability (RP) (MMP-9 [1]): 35.1259
- Kobs (MMP-2): 4205.91 M⁻¹ s⁻¹
- Kobs (MMP-9 [2]): 7815.03 M⁻¹ s⁻¹

Substance: GVPRA-VTASG
- relative probability (RP) (MMP-9 [1]): 40.8515
- Kobs (MMP-2): 6396.07 M⁻¹ s⁻¹
- Kobs (MMP-9 [2]): 12792.1 M⁻¹ s⁻¹

Substance: GVPRG-VRTAS
- relative probability (RP) (MMP-9 [1]): 42.1832
- Kobs (MMP-2): 12792.1 M⁻¹ s⁻¹
- Kobs (MMP-9 [2]): 10866.7 M⁻¹ s⁻¹

Substance: GVPRY-LRTAS
- relative probability (RP) (MMP-9 [1]): 44.5304
- Kobs (MMP-2): 12792.1 M⁻¹ s⁻¹
- Kobs (MMP-9 [2]): 12792.1 M⁻¹ s⁻¹

Substance: GVPSK-LTASG
- relative probability (RP) (MMP-9 [1]): 38.9571
- Kobs (MMP-2): 12792.1 M⁻¹ s⁻¹
- Kobs (MMP-9 [2]): 12792.1 M⁻¹ s⁻¹

Substance: GVVGA-LRTAS
- relative probability (RP) (MMP-9 [1]): 19.0529
- Kobs (MMP-2): 10866.7 M⁻¹ s⁻¹
- Kobs (MMP-9 [2]): 874.197 M⁻¹ s⁻¹

Substance: GWIAT-LRTAS
- relative probability (RP) (MMP-9 [1]): 0.199
- Kobs (MMP-2): 5090.5 M⁻¹ s⁻¹
- Kobs (MMP-9 [2]): 1561.44 M⁻¹ s⁻¹

Substance: GWPSE-LRTAS
- relative probability (RP) (MMP-9 [1]): 41.3266
- Kobs (MMP-2): 12792.1 M⁻¹ s⁻¹
- Kobs (MMP-9 [2]): 12792.1 M⁻¹ s⁻¹

Substance: GYFAN-LTASG
- relative probability (RP) (MMP-9 [1]): 0.8121
- Kobs (MMP-2): 12792.1 M⁻¹ s⁻¹
- Kobs (MMP-9 [2]): 0 M⁻¹ s⁻¹

Substance: GYPAG-LRTAS
- relative probability (RP) (MMP-9 [1]): 47.2274
- Kobs (MMP-2): 12792.1 M⁻¹ s⁻¹
- Kobs (MMP-9 [2]): 12792.1 M⁻¹ s⁻¹

Substance: GYPRG-LGTAS
- relative probability (RP) (MMP-9 [1]): 47.3825
- Kobs (MMP-2): 12792.1 M⁻¹ s⁻¹
- Kobs (MMP-9 [2]): 12792.1 M⁻¹ s⁻¹

Substance: HAPSL-YTASG
- relative probability (RP) (MMP-9 [1]): 23.6706
- Kobs (MMP-2): 12792.1 M⁻¹ s⁻¹
- Kobs (MMP-9 [2]): 12792.1 M⁻¹ s⁻¹

Substance: HKIAL-LTASG
- relative probability (RP) (MMP-9 [1]): 0.8483
- Kobs (MMP-2): 7386.83 M⁻¹ s⁻¹
- Kobs (MMP-9 [2]): 56.119 M⁻¹ s⁻¹

Substance: HMPLG-LTASG
- relative probability (RP) (MMP-9 [1]): 48.9856
- Kobs (MMP-2): 12792.1 M⁻¹ s⁻¹
- Kobs (MMP-9 [2]): 12792.1 M⁻¹ s⁻¹

Substance: HRPEW-YTASG
- relative probability (RP) (MMP-9 [1]): 25.7162
- Kobs (MMP-2): 3741.87 M⁻¹ s⁻¹
- Kobs (MMP-9 [2]): 4082.43 M⁻¹ s⁻¹

Substance: HTVRG-LTASG
- relative probability (RP) (MMP-9 [1]): 42.3063
- Kobs (MMP-2): 12792.1 M⁻¹ s⁻¹
- Kobs (MMP-9 [2]): 12792.1 M⁻¹ s⁻¹

Substance: HTVRN-VTASG
- relative probability (RP) (MMP-9 [1]): 19.0254
- Kobs (MMP-2): 5269.78 M⁻¹ s⁻¹
- Kobs (MMP-9 [2]): 3079.62 M⁻¹ s⁻¹

Substance: HTVYW-MTASG
- relative probability (RP) (MMP-9 [1]): 40.8648
- Kobs (MMP-2): 2038.8 M⁻¹ s⁻¹
- Kobs (MMP-9 [2]): 6396.07 M⁻¹ s⁻¹

Substance: HVPRQ-VTASG
- relative probability (RP) (MMP-9 [1]): 25.107
- Kobs (MMP-2): 27.918 M⁻¹ s⁻¹
- Kobs (MMP-9 [2]): 8941.32 M⁻¹ s⁻¹

Substance: HVVAK-MTASG
- relative probability (RP) (MMP-9 [1]): 0.5992
- Kobs (MMP-2): 6396.07 M⁻¹ s⁻¹
- Kobs (MMP-9 [2]): 1981.53 M⁻¹ s⁻¹

Substance: HVVAQ-LTASG
- relative probability (RP) (MMP-9 [1]): 6.994
- Kobs (MMP-2): 12792.1 M⁻¹ s⁻¹
- Kobs (MMP-9 [2]): 551.253 M⁻¹ s⁻¹

Substance: HYVRA-HTASG
- relative probability (RP) (MMP-9 [1]): 18.814
- Kobs (MMP-2): 10866.7 M⁻¹ s⁻¹
- Kobs (MMP-9 [2]): 4205.91 M⁻¹ s⁻¹

Substance: IAPAK-LTASG
- relative probability (RP) (MMP-9 [1]): 39.5582
- Kobs (MMP-2): 12792.1 M⁻¹ s⁻¹
- Kobs (MMP-9 [2]): 12792.1 M⁻¹ s⁻¹

Substance: IAPEF-LTASG
- relative probability (RP) (MMP-9 [1]): 20.835
- Kobs (MMP-2): 12792.1 M⁻¹ s⁻¹
- Kobs (MMP-9 [2]): 12792.1 M⁻¹ s⁻¹

Substance: IFARS-LTASG
- relative probability (RP) (MMP-9 [1]): 26.1862
- Kobs (MMP-2): 12792.1 M⁻¹ s⁻¹
- Kobs (MMP-9 [2]): 12792.1 M⁻¹ s⁻¹

Substance: IFPAN-HTASG
- relative probability (RP) (MMP-9 [1]): 10.2001
- Kobs (MMP-2): 12792.1 M⁻¹ s⁻¹
- Kobs (MMP-9 [2]): 5090.5 M⁻¹ s⁻¹

Substance: IGVRA-LTASG
- relative probability (RP) (MMP-9 [1]): 43.1929
- Kobs (MMP-2): 12792.1 M⁻¹ s⁻¹
- Kobs (MMP-9 [2]): 12792.1 M⁻¹ s⁻¹

Substance: IGVRQ-LTASG
- relative probability (RP) (MMP-9 [1]): 23.9228
- Kobs (MMP-2): 3536.02 M⁻¹ s⁻¹
- Kobs (MMP-9 [2]): 12792.1 M⁻¹ s⁻¹
